Target: PIK3CG (human) (UniProt P48736)
Assay: Assessment of PIK3CG Kinase Activity

Sequence of PIK3CG (human) (P48736 whole entry, looked up): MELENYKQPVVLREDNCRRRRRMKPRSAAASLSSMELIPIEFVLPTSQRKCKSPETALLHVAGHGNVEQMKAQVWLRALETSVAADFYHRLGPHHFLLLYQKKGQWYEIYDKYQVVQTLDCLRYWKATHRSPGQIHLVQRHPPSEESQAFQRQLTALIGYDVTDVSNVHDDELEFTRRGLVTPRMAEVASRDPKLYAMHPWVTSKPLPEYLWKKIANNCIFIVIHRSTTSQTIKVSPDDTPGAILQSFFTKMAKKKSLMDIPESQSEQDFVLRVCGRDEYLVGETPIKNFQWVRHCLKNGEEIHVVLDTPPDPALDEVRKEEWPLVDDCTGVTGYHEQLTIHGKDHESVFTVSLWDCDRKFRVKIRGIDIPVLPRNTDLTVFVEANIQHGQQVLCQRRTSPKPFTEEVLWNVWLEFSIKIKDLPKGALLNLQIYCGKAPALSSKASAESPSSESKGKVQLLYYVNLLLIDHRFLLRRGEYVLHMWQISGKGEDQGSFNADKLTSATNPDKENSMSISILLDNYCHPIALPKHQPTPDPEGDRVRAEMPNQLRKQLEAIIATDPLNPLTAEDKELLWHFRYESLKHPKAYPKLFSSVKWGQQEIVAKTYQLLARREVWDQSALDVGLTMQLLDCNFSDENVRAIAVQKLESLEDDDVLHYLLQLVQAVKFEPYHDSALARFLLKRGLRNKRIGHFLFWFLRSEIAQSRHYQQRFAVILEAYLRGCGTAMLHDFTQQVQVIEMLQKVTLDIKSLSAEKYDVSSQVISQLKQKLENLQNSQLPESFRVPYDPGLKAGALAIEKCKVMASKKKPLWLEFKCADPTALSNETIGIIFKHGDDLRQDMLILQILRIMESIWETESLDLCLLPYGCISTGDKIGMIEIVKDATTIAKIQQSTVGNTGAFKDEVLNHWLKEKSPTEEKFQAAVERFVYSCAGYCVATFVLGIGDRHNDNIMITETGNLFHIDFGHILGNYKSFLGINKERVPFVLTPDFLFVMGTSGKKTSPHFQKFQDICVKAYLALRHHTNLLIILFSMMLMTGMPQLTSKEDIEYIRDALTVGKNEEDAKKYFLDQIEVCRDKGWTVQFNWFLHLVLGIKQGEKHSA

Structure (SMILES)	IC50 [nM]
O=C(NCc1ccc2c(c1)OCO2)Nc1nc2c(s1)-c1c(c(-c3cncnc3)nn1-c1ccccc1Cl)CC2	< 800
C[C@@H](NC(=O)Nc1nc2c(s1)-c1c(c(-c3ccccc3)nn1-c1ccccc1Cl)CC2)C(=O)N1CCN(C)CC1	< 800
CN[C@@H](C)C(=O)N1CC[C@H](CNC(=O)Nc2nc3c(s2)-c2c(c(-c4cncnc4)nn2-c2ccccc2Cl)CC3)C1	< 800
CC(C)(C)OCCNC(=O)Nc1nc2c(s1)-c1c(c(-c3ccccc3)nn1-c1ccccc1Cl)CC2	< 800
CC(C)(C)OC(=O)N1CCCC(CNC(=O)Nc2nc3c(s2)-c2c(c(-c4cccnc4)nn2-c2ccccc2Cl)CC3)C1 (centres undefined)	< 800
O=C(Nc1ccccc1)Nc1nc2c(s1)-c1c(c(-c3cncnc3)nn1-c1ccccc1Cl)CC2	< 800
O=C(NCCC(=O)N1CCOCC1)Nc1nc2c(s1)-c1c(c(-c3ccccc3)nn1-c1ccccc1Cl)CC2	< 800
O=C(Nc1nc2c(s1)-c1c(c(-c3cccnc3)nn1-c1ccccc1Cl)CC2)NC1CC1	< 800
CCn1cnc(CCNC(=O)Nc2nc3c(s2)-c2c(c(-c4cccnc4)nn2C2CCN(C4CCCC4)CC2)CC3)c1	< 800
CCOC(=O)N1CC[C@H](CNC(=O)Nc2nc3c(s2)-c2c(c(-c4cncnc4)nn2-c2ccccc2Cl)CC3)C1	< 800
O=C(NCCc1nc(C2CC2)no1)Nc1nc2c(s1)-c1c(c(C3CC3)nn1-c1ccccc1Cl)CC2	< 800
Cc1nn(C)cc1CNC(=O)Nc1nc2c(s1)-c1c(c(-c3cccnc3)nn1-c1ccccc1Cl)CC2	< 800
O=C(NCCn1ccnc1)Nc1nc2c(s1)-c1c(c(-c3cncnc3)nn1-c1ccccc1Cl)CC2	< 800
O=C(NC[C@H]1CCCN1C(=O)N1CCCC1)Nc1nc2c(s1)-c1c(c(-c3cncnc3)nn1-c1ccccc1Cl)CC2	< 800
O=C(Nc1nc2c(s1)-c1c(c(-c3cccnc3)nn1-c1ccccc1Cl)CC2)N1CCCCC1c1nc2ccccc2[nH]1 (centres undefined)	< 800
C[C@H](NC(=O)Nc1nc2c(s1)-c1c(c(-c3ccccc3)nn1-c1ccccc1Cl)CC2)C(=O)N1CCCCC1	< 800
CCCn1cnc(CCNC(=O)Nc2nc3c(s2)-c2c(c(-c4cncnc4)nn2-c2ccccc2Cl)CC3)c1	< 800
O=C(NC[C@H]1CCCN1)Nc1nc2c(s1)-c1c(c(-c3cncnc3)nn1-c1ccccc1F)CC2	< 800
C[C@@H](NC(=O)Nc1nc2c(s1)-c1c(c(-c3ccccc3)nn1-c1ccccc1Cl)CC2)C(=O)N1CCOCC1	< 800
O=C(Nc1nc2c(s1)-c1c(c(-c3cccnc3)nn1-c1ccccc1Cl)CC2)N1CCC(N2Cc3ccccc3NC2=O)C1 (centres undefined)	< 800
CC(C)(C)OC(=O)NCCNC(=O)Nc1nc2c(s1)-c1c(c(-c3ccccc3)nn1-c1ccccc1Cl)CC2	< 800
CC(C)c1noc(CCNC(=O)Nc2nc3c(s2)-c2c(c(-c4cccnc4)nn2-c2ccccc2Cl)CC3)n1	< 800
CC(C)(C)OC(=O)N1CCC(C(=O)N2CCC[C@@H]2CNC(=O)Nc2nc3c(s2)-c2c(c(-c4cncnc4)nn2-c2ccccc2Cl)CC3)C1 (some centres undefined)	< 800
O=C(NCc1ccc2cc[nH]c2c1)Nc1nc2c(s1)-c1c(c(-c3cccnc3)nn1-c1ccccc1Cl)CC2	< 800
CN(C)C(=O)N1CCC[C@@H]1CNC(=O)Nc1nc2c(s1)-c1c(c(-c3cncnc3)nn1-c1ccccc1Cl)CC2	< 800
CC(C)c1cnc(CCNC(=O)Nc2nc3c(s2)-c2c(c(-c4ccccc4)nn2-c2cccc(Cl)c2)CC3)o1	< 800
COc1cccc(CNC(=O)Nc2nc3c(s2)-c2c(c(-c4cccnc4)nn2C2CCN(C4CCCC4)CC2)CC3)c1	< 800

Structure (SMILES)	IC50 [nM]
CC(C)c1cccc(CNC(=O)Nc2nc3c(s2)-c2c(c(-c4cccnc4)nn2C2CCN(C)CC2)CC3)c1	< 800
CCc1csc(CCNC(=O)Nc2nc3c(s2)-c2c(c(-c4cncnc4)nn2-c2ccccc2Cl)CC3)n1	< 800
CN(C)C(=O)Nc1nc2c(s1)-c1c(c(-c3cccnc3)nn1-c1ccccc1Cl)CC2	< 800
CN(C)C(=O)CNC(=O)Nc1nc2c(s1)-c1c(c(-c3cccnc3)nn1C1CCN(C3CCCC3)CC1)CC2	< 800
CN(C)C(=O)CNC(=O)Nc1nc2c(s1)-c1c(c(-c3cccnc3)nn1-c1ccccc1Cl)CC2	< 800
CCc1csc(CCNC(=O)Nc2nc3c(s2)-c2c(c(-c4cccnc4)nn2C2CCN(C)CC2)CC3)n1	< 800
O=C(NCCCn1ccnc1)Nc1nc2c(s1)-c1c(c(-c3cncnc3)nn1-c1ccccc1Cl)CC2	< 800
COc1ccc(CCNC(=O)Nc2nc3c(s2)-c2c(c(-c4cncnc4)nn2-c2ccccc2Cl)CC3)cc1OC	< 800
CCc1nnc(CCNC(=O)Nc2nc3c(s2)-c2c(c(-c4ccccc4)nn2-c2cccc(Cl)c2)CC3)o1	< 800
O=C(NCc1ccc(CN2CCNC2=O)cc1)Nc1nc2c(s1)-c1c(c(-c3cccnc3)nn1-c1ccccc1Cl)CC2	< 800
O=C(Nc1nc2c(s1)-c1c(c(-c3cccnc3)nn1-c1ccccc1Cl)CC2)N1CCC(CN2CCc3ccccc3C2=O)C1 (centres undefined)	< 800
CNC(=O)Nc1nc2c(s1)-c1c(c(-c3cncnc3)nn1-c1ccccc1F)CC2	< 800
Cc1nc(C)c(S(=O)(=O)NCCNC(=O)Nc2nc3c(s2)-c2c(c(-c4ccccc4)nn2-c2ccccc2Cl)CC3)s1	< 800
CN1CCN(C(=O)N2CCC[C@@H]2CNC(=O)Nc2nc3c(s2)-c2c(c(-c4cncnc4)nn2-c2ccccc2Cl)CC3)CC1	< 800
CC(C)(C)OC(=O)N1CCCC(CNC(=O)Nc2nc3c(s2)-c2c(c(-c4cncnc4)nn2-c2ccccc2Cl)CC3)C1 (centres undefined)	< 800
CC(C)(C)OC(=O)N1CCC[C@H]1CNC(=O)Nc1nc2c(s1)-c1c(c(-c3cccnc3)nn1-c1ccccc1Cl)CC2	< 800
CC(=O)Nc1cccc(CNC(=O)Nc2nc3c(s2)-c2c(c(-c4cccnc4)nn2-c2ccccc2Cl)CC3)c1	< 800
CN1CCC(n2nc(-c3cccnc3)c3c2-c2sc(NC(=O)NCc4cccc(NC(N)=O)c4)nc2CC3)CC1	< 800
O=C(NCc1nnn[nH]1)Nc1nc2c(s1)-c1c(c(-c3cncnc3)nn1-c1ccccc1Cl)CC2	< 800
CC(C)OC(=O)N1CCC[C@@H]1CNC(=O)Nc1nc2c(s1)-c1c(c(-c3cncnc3)nn1-c1ccccc1Cl)CC2	< 800
O=C(NC[C@H]1CCCN1)Nc1nc2c(s1)-c1c(c(-c3cncnc3)nn1-c1ccccc1Cl)CC2	< 800
O=C(Nc1nc2c(s1)-c1c(c(-c3cncnc3)nn1-c1ccccc1Cl)CC2)N1CCC(NC(=O)C(F)(F)F)C1 (centres undefined)	< 800
O=C(NC[C@H]1CCCN1C(=O)Oc1ccccc1)Nc1nc2c(s1)-c1c(c(-c3cncnc3)nn1-c1ccccc1Cl)CC2	< 800
NC(=O)Nc1nc2c(s1)-c1c(c(-c3cccnc3)nn1-c1ccc(S(N)(=O)=O)cc1Cl)CC2	< 800
O=C(NCCNS(=O)(=O)c1cccnc1)Nc1nc2c(s1)-c1c(c(-c3ccccc3)nn1-c1ccccc1Cl)CC2	< 800
CC(C)CNC(=O)CCNC(=O)Nc1nc2c(s1)-c1c(c(-c3cncnc3)nn1-c1ccccc1Cl)CC2	< 800
O=C(NCCn1ccnc1)Nc1nc2c(s1)-c1c(c(-c3cncnc3)nn1-c1ccccc1F)CC2	< 800

Structure (SMILES)	IC50 [nM]
CCc1noc(CCNC(=O)Nc2nc3c(s2)-c2c(c(-c4cccnc4)nn2-c2ccccc2Cl)CC3)n1	< 800
O=C1CCC(NC(=O)Nc2nc3c(s2)-c2c(c(-c4cccnc4)nn2-c2ccccc2Cl)CC3)C(c2ccccc2)N1 (centres undefined)	< 800
C[C@H](NC(=O)Nc1nc2c(s1)-c1c(c(-c3ccccc3)nn1-c1ccccc1Cl)CC2)C(=O)N1CCOCC1	< 800
CN(C)C(=O)CCNC(=O)Nc1nc2c(s1)-c1c(c(-c3cccnc3)nn1C1CCN(C3CCCC3)CC1)CC2	< 800
CC(C)S(=O)(=O)NCCNC(=O)Nc1nc2c(s1)-c1c(c(-c3ccccc3)nn1-c1ccccc1Cl)CC2	< 800
O=C(NCc1ccc2cc[nH]c2c1)Nc1nc2c(s1)-c1c(c(-c3cncnc3)nn1-c1ccccc1Cl)CC2	< 800
O=C(NCc1ccccc1N1CCCCC1)Nc1nc2c(s1)-c1c(c(-c3cccnc3)nn1-c1ccccc1Cl)CC2	< 800
CC(=O)N(C)c1cccc(CNC(=O)Nc2nc3c(s2)-c2c(c(-c4cncnc4)nn2-c2ccccc2Cl)CC3)c1	< 800
CN(C)C(=O)Nc1nc2c(s1)-c1c(c(-c3cncnc3)nn1-c1ccccc1F)CC2	< 800
CC(C)(C)CC(=O)N1CCC[C@@H]1CNC(=O)Nc1nc2c(s1)-c1c(c(-c3cncnc3)nn1-c1ccccc1Cl)CC2	< 800
CN1CCC(CNC(=O)Nc2nc3c(s2)-c2c(c(-c4cccnc4)nn2-c2ccccc2Cl)CC3)CC1	< 800
O=C(Nc1nc2c(s1)-c1c(c(-c3cccnc3)nn1-c1ccccc1Cl)CC2)N1CCCC(c2ccccc2O)C1 (centres undefined)	< 800
C[C@H](NC(=O)Nc1nc2c(s1)-c1c(c(-c3ccccc3)nn1-c1ccccc1Cl)CC2)C(=O)N1CCN(C)CC1	< 800
COC(=O)CCNC(=O)Nc1nc2c(s1)-c1c(c(-c3cncnc3)nn1-c1ccccc1Cl)CC2	< 800
CC(=O)NC1CCN(C(=O)Nc2nc3c(s2)-c2c(c(-c4cccnc4)nn2-c2ccccc2Cl)CC3)C1 (centres undefined)	< 800
O=C(NCc1cc(CN2CCOCC2)ccn1)Nc1nc2c(s1)-c1c(c(-c3cncnc3)nn1-c1ccccc1Cl)CC2	< 800
CC(C)c1cccc(CNC(=O)Nc2nc3c(s2)-c2c(c(-c4cccnc4)nn2-c2ccccc2Cl)CC3)c1	< 800
CC(C)c1nnc(CCNC(=O)Nc2nc3c(s2)-c2c(c(-c4cccnc4)nn2-c2ccccc2Cl)CC3)o1	< 800
CC(C)(C)OC(=O)N1CCC(CNC(=O)Nc2nc3c(s2)-c2c(c(-c4cccnc4)nn2-c2ccccc2Cl)CC3)CC1	< 800
O=C(NCc1ccc(-c2ncc[nH]2)cc1)Nc1nc2c(s1)-c1c(c(-c3cncnc3)nn1-c1ccccc1Cl)CC2	< 800
O=C(NCc1ccc2nc[nH]c2c1)Nc1nc2c(s1)-c1c(c(-c3cncnc3)nn1-c1ccccc1Cl)CC2	< 800
O=C(Nc1nc2c(s1)-c1c(c(-c3cccnc3)nn1-c1ccccc1Cl)CC2)NC1(c2nc3ccc(Cl)cc3[nH]2)CCCCC1	< 800
CCOC(=O)N1CCC[C@@H]1CNC(=O)Nc1nc2c(s1)-c1c(c(-c3cncnc3)nn1-c1ccccc1Cl)CC2	< 800
CC(C)(C)OC(=O)N1CCC[C@@H]1CNC(=O)Nc1nc2c(s1)-c1c(c(-c3ccccc3)nn1-c1ccccc1F)CC2	< 800
CC(C)(C)OC(=O)CCNC(=O)Nc1nc2c(s1)-c1c(c(-c3cncnc3)nn1-c1ccccc1Cl)CC2	< 800

Source: the Kinase Knowledgebase extract (Sharma et al. 2016)
